The EC50 is the midpoint of the concentration-response curve. As a reminder, the Emax is the greatest response seen or fitted, relative to the assay's reference.

Consider 8 molecules from patent publication US9388162B2, “Substituted morphinans and the use thereof” (Purdue Pharma L.P., priority 2012, dated 2016).

One assay concerns the target μ-opioid receptors (Homo sapiens (Human), UniProt P35372). Nature of the assay: μ-opioid receptor [35S]GTPγS functional assay, U-2 OS cells. The assay is classed as biochemical. The following applies: μ GTP; for EC50: read-out: Activity Response μ EC50 (nM) [mean ± SEM]; for Emax: read-out: Activity Response μ Emax (%). The method, then: [^35S]GTPγS functional assays were conducted using freshly thawed μ-receptor membranes prepared from a cell line expressing recombinant μ opioid receptor in a HEK-293, CHO or U-2 OS cell background or purchased from a commercial source (Perkin Elmer, Shelton, Conn.; or DiscovRx, Fremont, Calif.). Assay reactions were prepared by sequentially adding the following reagents to binding buffer (100 mM NaCl, 10 mM MgCl2, 20 mM HEPES, pH 7.4) on ice (final concentrations indicated): membrane protein (0.026 mg/mL), saponin ([…]), GDP ([…]) and [^35S]GTPγS (0.20 nM; Perkin Elmer, Shelton, Conn.). The prepared membrane solution (190 μl/well) was transferred to 96-shallow well polypropylene plates containing 10 μl of 20× concentrated stock solutions of the agonist [D-Ala^2, N-methyl-Phe^4 Gly-ol^5]-enkephalin (DAMGO) prepared in dimethyl sulfoxide (DMSO). Plates were incubated for 30 min at about 25° C. with shaking. Reactions were terminated by rapid filtration onto 96-well Unifilter GF/B filter plates (Perkin Elmer, Shelton, Conn.) using a 96-well tissue harvester (Perkin Elmer, Shelton, Conn.) followed by three filtration washes with 200 μl of ice-cold wash buffer (10 mM NaH2PO4, 10 mM Na2HPO4, pH 7.4). Filter plates were subsequently dried at 50° C. for 2-3 hours. BetaScint scintillation cocktail (Perkin Elmer, Shelton, Conn.) was added (50 μl/well) and plates were counted using a Packard Top-Count for 1 min/well. Data were analyzed using the sigmoidal dose-response curve fitting functions in GraphPad PRISM v. 3.0, or an in-house function for non-linear, sigmoidal dose-response curve-fitting.
μ GTP EC50 is the concentration of a compound providing 50% of the maximal response for the compound at a μ-opioid receptor.
μ GTP Emax (%) is the maximal effect elicited by a compound relative to the effect elicited by DAMGO, a standard μ agonist. Generally, the μ GTP Emax (%) value measures the efficacy of a compound to treat or prevent pain or other Conditions.
The following tables provide results on the efficacy of binding and activity response of exemplified Compounds of the Invention at the μ- and κ-opioid receptors. In TABLE 3, binding affinity of certain Compounds of the Invention to the μ- and κ-opioid receptors was determined as described above. In TABLE 4, activity response of certain Compounds of the Invention to the μ- and κ-opioid receptors was determined as described above for functional assays using HEK-293 cells. In TABLE 5, activity response of certain Compounds of the Invention to the μ- and κ-opioid receptors was determined as described above using U-2 OS cells.
On the technique in general: Binding of GTPγS marks nucleotide exchange on a G protein.

Another assay concerns the target κ opioid receptor (Homo sapiens (Human), UniProt P41145). Briefly: κ-opioid receptor [35S]GTPγS functional assay, U-2 OS cells. The following applies: κ GTP; for EC50: read-out: Activity Response κ EC50 (nM) [mean ± SEM]; for Emax: relative to U69,593, read-out: Activity Response κ Emax (%). In kind it is biochemical. The method, then: Membranes from HEK-293 cells, CHO or U-2 OS cells expressing the recombinant human kappa opioid receptor (κ) were prepared by lysing cells in ice cold hypotonic buffer (2.5 mM MgCl2, 50 mM HEPES, pH 7.4) (10 mL/10 cm dish) followed by homogenization with a tissue grinder/Teflon pestle. Membranes were collected by centrifugation at 30,000×g for 15 min at 4° C. and pellets were resuspended in hypotonic buffer to a final concentration of 1-3 mg/mL. Protein concentrations were determined using the BioRad protein assay reagent with bovine serum albumen as standard. Aliquots of κ receptor membranes were stored at −80° C.
Functional [^35S]GTPγS binding assays were conducted as follows. κ opioid receptor membrane solution was prepared by sequentially adding final concentrations of 0.026 μg/μl κ membrane protein (in-house), 10 μg/mL saponin, 3 μM GDP and 0.20 nM [^35S]GTPγS to binding buffer (100 mM NaCl, 10 mM MgCl2, 20 mM HEPES, pH 7.4) on ice. The prepared membrane solution (190 μl/well) was transferred to 96-shallow well polypropylene plates containing 10 μl of 20× concentrated stock solutions of agonist prepared in DMSO. Plates were incubated for 30 min at a temperature of about 25° C. with shaking. Reactions were terminated by rapid filtration onto 96-well Unifilter GF/B filter plates (Perkin Elmer, Shelton, Conn.) using a 96-well tissue harvester (Packard) and followed by three filtration washes with 200 μl ice-cold binding buffer (10 mM NaH2PO4, 10 mM Na2HPO4, pH 7.4). Filter plates were subsequently dried at 50° C. for 2-3 hours. Fifty μl/well scintillation cocktail (Perkin Elmer, Shelton, Conn.) was added and plates were counted in a Packard Top-Count for 1 min/well.
κ GTP EC50 is the concentration of a compound providing 50% of the maximal response for the compound at a κ receptor.
κ GTP Emax (%) is the maximal effect elicited by a compound relative to the effect elicited by U69,593.
In TABLE 3, binding affinity of certain Compounds of the Invention to the μ- and κ-opioid receptors was determined as described above. In TABLE 4, activity response of certain Compounds of the Invention to the μ- and κ-opioid receptors was determined as described above for functional assays using HEK-293 cells. In TABLE 5, activity response of certain Compounds of the Invention to the μ- and κ-opioid receptors was determined as described above using U-2 OS cells.

Regarding `COc1ccc2c(c1)[C@]13CCN(CC4CC4)[C@H](C2)[C@]1(O)C[C@H](OCC(C)C)C(=O)C3` [Compound 23, (4bR,7S,8aS,9R)-11-(cyclopropylmethyl)-8a-hydroxy-7-isobutoxy-3-methoxy-8,8a,9,10-tetrahydro-5H-9,4b-(epiminoethano)phenanthren-6(7H)-one], the half-maximal effective concentration (EC50) on μ-opioid receptors came to 2100 ± 735 nM; on κ opioid receptor it was 5560 ± 481 nM. In addition, the “Activity Response μ Emax (%)” value at μ-opioid receptors (relative to DAMGO) is 15.7 ± 3.71%. Moreover, on κ opioid receptor (relative to U69,593), the “Activity Response κ Emax (%)” value worked out at 90.0 ± 1.00%.

Consider `COc1ccc2c(c1)[C@]13CCN(CC4CC4)[C@H](C2)[C@]1(O)C[C@H](O)C(=O)C3` [Compound 25, (4bR,7S,8aS,9R)-11-(cyclopropylmethyl)-7,8a-dihydroxy-3-methoxy-8,8a,9,10-tetrahydro-5H-9,4b-(epiminoethano)phenanthren-6(7H)-one], for which the EC50 was 578 ± 91.8 nM at μ-opioid receptors and 876 ± 18.8 nM at κ opioid receptor. Further, the Emax is 36 ± 3.51% at μ-opioid receptors (relative to DAMGO) and 106 ± 3.28% at κ opioid receptor.

Regarding `COc1ccc2c(c1)[C@]13CCN(CC4CC4)[C@H](C2)[C@]1(O)C[C@H](NC(=O)C(C)C)C(=O)C3` [Compound 26, N-((4bR,7S,8aS,9R)-11-(cyclopropylmethyl)-8a-hydroxy-3-methoxy-6-oxo-6,7,8,8a,9,10-hexahydro-5H-9,4b-(epiminoethano)phenanthren-7-yl)isobutyramide], the EC50 came to 7110 ± 633 nM on μ-opioid receptors and 7210 ± 438 nM on κ opioid receptor. The figures for the Emax at μ-opioid receptors (relative to DAMGO) and on κ opioid receptor were 31 ± 2.08% and 104 ± 2.52%, respectively.

For the molecule `CC(C)C(=O)N[C@H]1C[C@@]2(O)[C@H]3Cc4ccc(O)cc4[C@@]2(CCN3CC2CC2)CC1=O` [Compound 27, N-((4bR,7S,8aS,9R)-11-(cyclopropylmethyl)-3,8a-dihydroxy-6-oxo-6,7,8,8a,9,10-hexahydro-5H-9,4b-(epiminoethano)phenanthren-7-yl)isobutyramide], the EC50 at μ-opioid receptors is above 200000 nM; at κ opioid receptor it was 24.7 ± 3.18 nM. Besides, the Emax on μ-opioid receptors (relative to DAMGO) was 8 ± 2.12%; on κ opioid receptor, 92.7 ± 3.18%.

For the molecule `CC(=O)N[C@H]1C[C@@]2(O)[C@H]3Cc4ccc(O)cc4[C@@]2(CCN3CC2CC2)CC1=O` [Compound 28, N-((4bR,7S,8aS,9R)-11-(cyclopropylmethyl)-3,8a-dihydroxy-6-oxo-6,7,8,8a,9,10-hexahydro-5H-9,4b-(epiminoethano)phenanthren-7-yl)acetamide], the EC50 at μ-opioid receptors is above 200000 nM; on κ opioid receptor, 27.1 ± 3.29 nM. Also, the figures for the Emax on μ-opioid receptors (relative to DAMGO) and at κ opioid receptor were 2.5% and 86.7 ± 2.4%, respectively.

As for `CCC(=O)N[C@H]1C[C@@]2(O)[C@H]3Cc4ccc(O)cc4[C@@]2(CCN3CC2CC2)CC1=O` [Compound 29, N-((4bR,7S,8aS,9R)-11-(cyclopropylmethyl)-3,8a-dihydroxy-6-oxo-6,7,8,8a,9,10-hexahydro-5H-9,4b-(epiminoethano)phenanthren-7-yl)propionamide], the EC50 on μ-opioid receptors was above 200000 nM; on κ opioid receptor, 14.6 ± 1.86 nM. The figures for the Emax on μ-opioid receptors (relative to DAMGO) and on κ opioid receptor were 7.25 ± 1.89% and 98.7 ± 5.21%, respectively.

Turning to `CC(C)CCC(=O)N[C@H]1C[C@@]2(O)[C@H]3Cc4ccc(O)cc4[C@@]2(CCN3CC2CC2)CC1=O` [Compound 30, N-((4bR,7S,8aS,9R)-11-(cyclopropylmethyl)-3,8a-dihydroxy-6-oxo-6,7,8,8a,9,10-hexahydro-5H-9,4b-(epiminoethano)phenanthren-7-yl)-4-methylpentanamide], the results for the EC50 at μ-opioid receptors and at κ opioid receptor were 9.61 ± 0.83 nM and 1.61 ± 0.12 nM, respectively. Further, the values for the Emax at μ-opioid receptors (relative to DAMGO) and on κ opioid receptor were 51 ± 2.65% and 97.7 ± 3.18%, respectively.

As for `COc1ccc2c(c1)[C@]13CCN(C)[C@H](C2)[C@]1(O)C[C@H](CC(=O)O)C(=O)C3` [Compound 60, 2-((4bR,7R,8aS,9R)-8a-hydroxy-3-methoxy-11-methyl-6-oxo-6,7,8,8a,9,10-hexahydro-5H-9,4b-(epiminoethano)phenanthren-7-yl)acetic acid], on κ opioid receptor, the EC50 is 14900 ± 1320 nM and the Emax was 84.3 ± 0.67%.
